Reference: ChEMBL document CHEMBL4004791, “Ceylonins A-F, Spongian Diterpene Derivatives That Inhibit RANKL-Induced Formation of Multinuclear Osteoclasts, from the Marine Sponge Spongia ceylonensis” (J Nat Prod, 2017)
The source made the active and inactive calls. The calls are words filed in the database; no cut-off is given here.

Key:
[1] = (§1) Inhibition of RANKL-induced osteoclastogenesis in mouse RAW264 cells at 50 uM after 4 days by TRAP staining based assay relative to control; format: functional; settings: RAW264.7, 96 h
[2] = Cytotoxicity against mouse RAW264 cells at 50 uM; format: cell-based; settings: raw264, 50 µM
[3] = test system: RAW264; experiment: Inhibition of RANKL-induced osteoclastogenesis in mouse RAW264 cells after 4 days by TRAP staining based assay; format: functional, cell-based
[4] = test system: RAW264; experiment: as §1; format: functional

Question: For `C[C@]12CCC[C@](C)(C(=O)O)[C@@H]1CC[C@@]1(C)C3=C(CC[C@H]21)[C@@H]1C[C@@H](C(=O)O)[C@H]3O1`, which inhibition at 50 µM [1] is on record?
Answer: 31%

Question: With `C[C@]12CCC[C@](C)(C(=O)O)[C@@H]1CC[C@@]1(C)C3=C(CC[C@H]21)[C@@H]1O[C@H]3C[C@@H]1C(=O)O` as the compound, how does the Activity [2] read?
Answer: Non-Toxic

Question: And the inhibition [3]?
Answer: Dose-dependent effect

Question: And the inhibition at 50 µM [1]?
Answer: 70%

Question: Which inhibition at 50 µM [1] does the source give for `C[C@]12CCC[C@](C)(C(=O)O)[C@@H]1CC[C@@]1(C)C3=C(CC[C@H]21)[C@H]1C[C@H](C(=O)O)[C@@H]3O1` here?
Answer: 47%

Question: For `C[C@]12CCC[C@](C)(C(=O)O)[C@@H]1CC[C@@]1(C)C3=C(CC[C@H]21)[C@H]1O[C@@H]3C[C@@H]1C(=O)O`, which inhibition at 50 µM [1] is on record?
Answer: 28%

Question: For `C[C@]12CCC[C@](C)(C(=O)O)[C@@H]1CC[C@@]1(C)c3cocc3CC[C@H]21`, which inhibition [4] is on record?
Answer: inactive
